Activity calls are given as the source filed them. The rule behind the calls is not given here.
Tested on: rodent carcinogenicity bioassays, tumor incidence
Test: CCRIS carcinogenicity studies
Summary of the method: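 NCI-built, expert-reviewed records of carcinogenicity and related test outcomes (mutagenicity, tumor promotion/inhibition) compiled from published and report sources, historical span 1985-2011, not updated.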

CN(C)[C@@H]1C(=O)C(C(N)=O)=C(O)[C@@]2(O)C(=O)C3=C(O)c4c(O)cccc4[C@@](C)(O)[C@H]3C[C@@H]12
carcinogen call (Species: MOUSE, Strain/Sex: B6C3F1/FEMALE, Route: GAVAGE, Dose: 0, 12500, 25000 PPM IN FEED FOR 103 WK (STUDY DURATION: 104 WK), Dose: 0, 12500, 25000 PPM IN FEED FOR 103 WK (STUDY DURATION: 104 WK)): inactive; negative | carcinogen call (Species: MOUSE, Strain/Sex: B6C3F1/FEMALE, Route: ORAL, Dose: 0, 12500, 25000 PPM IN DIET FOR 103 WK (STUDY DURATION: 103 WK), Dose: 0, 12500, 25000 PPM IN DIET FOR 103 WK (STUDY DURATION: 103 WK)): inactive; negative | carcinogen call (Species: MOUSE, Strain/Sex: B6C3F1/MALE, Route: ORAL, Dose: 0, 12500, 25000 PPM IN DIET FOR 103 WK (STUDY DURATION: 103 WK), Dose: 0, 12500, 25000 PPM IN DIET FOR 103 WK (STUDY DURATION: 103 WK)): inactive; negative | carcinogen call (Species: MOUSE, Strain/Sex: B6C3F1/MALE, Route: ORAL, Dose: 0, 12500, 25000 PPM IN FEED FOR 103 WK (STUDY DURATION: 104 WK), Dose: 0, 12500, 25000 PPM IN FEED FOR 103 WK (STUDY DURATION: 104 WK)): inactive; negative | carcinogen call (Species: RAT, Strain/Sex: F344/FEMALE, Route: ORAL, Dose: 0, 12500, 25000 PPM IN DIET FOR 103 WK (STUDY DURATION: 103 WK), Dose: 0, 12500, 25000 PPM IN DIET FOR 103 WK (STUDY DURATION: 103 WK)): inactive; negative | carcinogen call (Species: RAT, Strain/Sex: F344/FEMALE, Route: ORAL, Dose: 0, 12500, 25000 PPM IN FEED FOR 103 WK (STUDY DURATION: 104 WK), Dose: 0, 12500, 25000 PPM IN FEED FOR 103 WK (STUDY DURATION: 104 WK)): inactive; negative | carcinogen call (Species: RAT, Strain/Sex: F344/MALE, Route: ORAL, Dose: 0, 12500, 25000 PPM IN DIET FOR 103 WK (STUDY DURATION: 103 WK), Dose: 0, 12500, 25000 PPM IN DIET FOR 103 WK (STUDY DURATION: 103 WK)): inactive; negative | carcinogen call (Species: RAT, Strain/Sex: F344/MALE, Route: ORAL, Dose: 0, 12500, 25000 PPM IN FEED FOR 103 WK (STUDY DURATION: 104 WK), Dose: 0, 12500, 25000 PPM IN FEED FOR 103 WK (STUDY DURATION: 104 WK)): inactive; negative

Clc1cccc(-c2cccc(Cl)c2)c1
carcinogen call (Species: RAT, Strain/Sex: WISTAR/MALE, Route: ORAL, Dose: 0, 100 PPM IN DIET FOR DURATION OF STUDY (STUDY DURATION: 832 D)): inactive; negative

c1ccc2c(c1)ccc1ccccc12
carcinogen call (Species: RAT, Strain/Sex: OSBORNE-MENDEL/FEMALE, Route: INTRAPULMONARY IMPLANT, Dose: 0, 1, 3, 10 MG IN BEESWAX AND TRIOCTANOIN IMPLANTED IN LUNG (STUDY DURATION: 141 WK), Dose: 0, 1, 3, 10 MG IN BEESWAX AND TRIOCTANOIN IMPLANTED IN LUNG (STUDY DURATION: 141 WK)): inactive; negative

CC[C@H](C)[C@H]1O[C@]2(C=C[C@@H]1C)C[C@@H]1C[C@@H](C/C=C(\C)[C@@H](O[C@H]3C[C@H](OC)[C@@H](O[C@H]4C[C@H](OC)[C@@H](NC)[C@H](C)O4)[C@H](C)O3)[C@@H](C)/C=C/C=C3\CO[C@@H]4[C@H](O)C(C)=C[C@@H](C(=O)O1)[C@]34O)O2
carcinogen call (Species: Mouse, Strain/Sex: Strain not specified/Female (50/Group), Route: Oral, Dose: 0, 0.5, 2.5, 12.5 (lowered to 7.5 at wk 48) mg/kg/day in the diet for 79 wk, study duration 79 wk, Dose: 0, 0.5, 2.5, 12.5 (lowered to 7.5 at wk 48) mg/kg/day in the diet for 79 wk, study duration 79 wk): inactive; negative | carcinogen call (Species: Mouse, Strain/Sex: Strain not specified/Male (50/Group), Route: Oral, Dose: 0, 0.5, 2.5, 12.5 (lowered to 7.5 at wk 9 and to 5 at wk 31) mg/kg/day in the diet for 79 wk, study duration 79 wk, Dose: 0, 0.5, 2.5, 12.5 (lowered to 7.5 at wk 9 and to 5 at wk 31) mg/kg/day in the diet for 79 wk, study duration 79 wk): inactive; negative | carcinogen call (Species: Rat, Strain/Sex: Strain not specified/Female (65/Group), Route: Oral, Dose: 0, 0.25, 1, 5 (lowered to 2.5 at wk 10) mg/kg/day in the diet for 105 wk, study duration 105 wk, Dose: 0, 0.25, 1, 5 (lowered to 2.5 at wk 10) mg/kg/day in the diet for 105 wk, study duration 105 wk): inactive; negative | carcinogen call (Species: Rat, Strain/Sex: Strain not specified/Male (65/Group), Route: Oral, Dose: 0, 0.25, 1, 5 (lowered to 2.5 at wk 6) mg/kg/day in the diet for 105 wk, study duration 105 wk, Dose: 0, 0.25, 1, 5 (lowered to 2.5 at wk 6) mg/kg/day in the diet for 105 wk, study duration 105 wk): inactive; negative

ClC1=C(Cl)[C@]2(Cl)[C@@H]3[C@@H]4C[C@@H]([C@H]5O[C@@H]45)[C@@H]3[C@@]1(Cl)C2(Cl)Cl
carcinogen call (Species: MOUSE, Strain/Sex: B6C3F1/FEMALE, Route: ORAL, Dose: 0, 2.5, 5 PPM IN DIET FOR 80 WK (STUDY DURATION: 90-93 WK), Dose: 0, 2.5, 5 PPM IN DIET FOR 80 WK (STUDY DURATION: 90-93 WK)): inactive; negative | carcinogen call (Species: MOUSE, Strain/Sex: B6C3F1/MALE, Route: ORAL, Dose: 0, 2.5, 5 PPM IN DIET FOR 80 WK (STUDY DURATION: 90-93 WK), Dose: 0, 2.5, 5 PPM IN DIET FOR 80 WK (STUDY DURATION: 90-93 WK), Tumor Site: Type of Lesion: LIVER: HEPATOCELLULAR CARCINOMA): equivocal | carcinogen call (Species: MOUSE, Strain/Sex: B6C3F1/MALE, Route: ORAL, Dose: 0, 2.5, 5 PPM IN DIET FOR 80 WK (STUDY DURATION: 91-93 WK), Dose: 0, 2.5, 5 PPM IN DIET FOR 80 WK (STUDY DURATION: 91-93 WK), Tumor Site: Type of Lesion: LIVER: HEPATOCELLULAR CARCINOMA): active; positive | carcinogen call (Species: MOUSE, Strain/Sex: B6C3F1/MALE, Route: ORAL, Dose: 0, 10 PPM IN DIET FOR 85 WK (STUDY DURATION: 132 WK), Tumor Site: Type of Lesion: LIVER: TUMORS): active; positive | carcinogen call (Species: MOUSE, Strain/Sex: BALB/MALE, Route: ORAL, Dose: 0, 10 PPM (WT/WT) IN CORN OIL ADDED TO DIET FOR 75 WK (STUDY DURATION: 75 WK), Tumor Site: Type of Lesion: LIVER: HEPATOCELLULAR ADENOMA, HEPATOCELLULAR CARCINOMA): active; positive | carcinogen call (Species: MOUSE, Strain/Sex: C3H/MALE, Route: ORAL, Dose: 0, 10 PPM IN DIET FOR 85 WK (STUDY DURATION: 132 WK), Tumor Site: Type of Lesion: LIVER: TUMORS): active; positive | carcinogen call (Species: MOUSE, Strain/Sex: C57BL/MALE, Route: ORAL, Dose: 0, 10 PPM IN DIET FOR 85 WK (STUDY DURATION: 132 WK), Tumor Site: Type of Lesion: LIVER: TUMORS): active; positive | carcinogen call (Species: MOUSE, Strain/Sex: CF-1/MALE,FEMALE, Route: ORAL, Dose: 0, 0.1, 1, 2.5, 5, 10, 20 PPM IN DIET CONTINUOUSLY, Dose: 0, 0.1, 1, 2.5, 5, 10, 20 PPM IN DIET CONTINUOUSLY, Tumor Site: Type of Lesion: LIVER): active; positive | carcinogen call (Species: MOUSE, Strain/Sex: CF-1/MALE,FEMALE, Route: ORAL, Dose: 0, 0.1, 1.0, 10 PPM IN DIET FOR 132 WK, Dose: 0, 0.1, 1.0, 10 PPM IN DIET FOR 132 WK, Tumor Site: Type of Lesion: LIVER): active; positive | carcinogen call (Species: MOUSE, Strain/Sex: CF-1/MALE,FEMALE, Route: ORAL, Dose: 0, 1.25, 2.5, 5, 10, 20 PPM IN DIET FOR 128 WK, Dose: 0, 1.25, 2.5, 5, 10, 20 PPM IN DIET FOR 128 WK, Tumor Site: Type of Lesion: LIVER): active; positive | carcinogen call (Species: MOUSE, Strain/Sex: CF-1/MALE,FEMALE, Route: ORAL, Dose: 0, 10 PPM IN DIET FOR 2 YR OR MORE, Tumor Site: Type of Lesion: LIVER): active; positive | carcinogen call (Species: MOUSE, Strain/Sex: CF-1/MALE,FEMALE, Route: ORAL, Dose: 0, 10 PPM IN DIET FOR UP TO 110 WK, Tumor Site: Type of Lesion: LIVER: HEPATOCELLULAR TUMOR): active; positive | carcinogen call (Species: MOUSE, Strain/Sex: CF-1/MALE,FEMALE, Route: ORAL, Dose: 10 PPM IN DIET FOR 0, 2, 4, 8, 16, 32 OR 64 WK, Tumor Site: Type of Lesion: LIVER: HEPATOCELLULAR TUMOR): active; positive | carcinogen call (Species: RAT, Strain/Sex: OSBORNE-MENDEL/FEMALE, Route: ORAL, Dose: 0, 29, 65 PPM TWA, IN DIET FOR 59-80 WK (STUDY DURATION: 110-111 WK), Dose: 0, 29, 65 PPM TWA, IN DIET FOR 59-80 WK (STUDY DURATION: 110-111 WK)): inactive; negative | carcinogen call (Species: RAT, Strain/Sex: OSBORNE-MENDEL/MALE, Route: ORAL, Dose: 0, 29, 65 PPM TWA, IN DIET FOR 59-80 WK (STUDY DURATION: 110-111 WK), Dose: 0, 29, 65 PPM TWA, IN DIET FOR 59-80 WK (STUDY DURATION: 110-111 WK)): inactive; negative
